This passage reports ring closure, conversion and ring closure, crude yield results from US12473328.

For data set [1] the following is noted: resin.
For data set [2] the following is noted: disulfide bond; 44-membered ring; resin; 3 steps.
[3] abbreviates: crosslinker bond, 30-membered ring.
Where [4] appears, read: disulfide bond, 20-membered ring.

Like-named read-outs stand apart in the source and are kept apart here.

In turn, H-ACREGFLRCLHRPTVCNG-H2 yielded a ring closure, conversion in data set [1] (crosslinker bond, 31-membered ring) of 99%.

The substance H-ACSWPARCLHQDLCA-NH2 came in with a ring closure, conversion in data set [1] (setting [3]) of 99%.

H-ACYNEFGCEDFYDICA-NH2 showed a ring closure, conversion in data set [1] (setting [3]) of 99%.

For the substance H-CRVPGDAHHADSLC-NH2, the ring closure, conversion was 99% in data set [1] (crosslinker bond, 49-membered ring) and 22% in data set [1] (disulfide bond, 44-membered ring). In addition, in data set [2], the ring closure, crude yield came out at 22%.

Substance H-CYFQNCPRG-NH2 yielded a ring closure, conversion in data set [1] (setting [4]) of 95%.

In data set [1] (setting [4]), “H-KCNTATCATQRLANFLVHSSNFGPILPPTNVGSNTY-NH2” gave a ring closure, conversion of 99%.

The substance H-VRCPGAAHHADSLC-NH2 had a ring closure, conversion in data set [1] (disulfide bond, 38-membered ring) of 99%.

In data set [1] (crosslinker bond, 19-membered ring), H-VRVPGCAHCADSLY-NH2 gave a ring closure, conversion of 99%.
